Measurements as given in patent US5118811A, “Amino acid derivatives possessing prolyl endopeptidase-inhibitory activities” (Japan Tobacco Inc., priority 1989, dated 1992).

Key:
leucine aminopeptidase = test: Leucine Aminopeptidase-Inhibitory Activity; type: biochemical, swine
Method: (§1) Similarly, by following the procedure mentioned above, but employing a 50 mM Tris-HCl buffer (pH 8.0) as a buffer for measurement, a 0.2 μM solution of leucine aminopeptidase (derived from swine kidney, Sigma) in the same buffer as an enzyme solution and a 200 μM solution of 7-(leucyl-4-methylcoumarinamide (Peptide Institute, Inc.) in the same buffer as a substrate solution. Each fluorescence (d1, d2 and d3) was also determined, respectively.
(§2) Using the fluorescence x1, x2 and x3 measured in the above-mentioned manner, the inhibitory rate against various proteases was calculated by the following formula where x stands for b, c, d, e or f: [formula]

trypsin = molecular target: T1, trypsin (Bos taurus, UniProt P00760); test: Trypsin-Inhibitory Activity; type: biochemical, bovine; conditions: read-out: Inhibition rate, trypsin; for inhibition at 0.01 µM: 1 × 10^-8 M; for inhibition at 10 µM: 1 × 10^-5 M; for inhibition at 1 µM: 1 × 10^-6 M
T1 construct: purchased Sigma; host or cells: bovine pancreas
T1 sequence (P00760 24-246): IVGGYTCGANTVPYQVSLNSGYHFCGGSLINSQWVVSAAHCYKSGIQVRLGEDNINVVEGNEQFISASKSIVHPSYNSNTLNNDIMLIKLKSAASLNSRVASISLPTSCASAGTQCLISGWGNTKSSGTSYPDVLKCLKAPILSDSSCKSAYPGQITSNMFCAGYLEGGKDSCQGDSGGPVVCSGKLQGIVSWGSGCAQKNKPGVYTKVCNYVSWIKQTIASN
Method: In the present invention, a 50 mM Tris-HCl buffer (pH 8.0) was employed as a buffer for measurement.
To a mixture of the above-mentioned buffer (850 μl), a solution of the compounds of the present invention in the same buffer (50 μl) and a 0.02 μM solution of trypsin (derived from bovine pancreas, Sigma) in the same buffer (50 μl) was added a 200 μM solution of 7-(prolyl-phenylaranyl-arginyl)-4-methylcoumarinamide (Peptide Institute, Inc.) in the same buffer (50 μl), and the mixture was incubated at 30° C. for 1 hour. The reaction mixture was immersed in ice (0° C.) to terminate the reaction, and the fluorescence (b1) was determined 1 hour later (excitation at 370 nm and emission at 440 nm). Concurrently, there were conducted the experiment wherein, in the system above, the trypsin solution was substituted for a buffer alone, and the experiment wherein the solution of the compounds of the present invention was also substituted for a buffer above. Each fluorescence (b2 and b3) was also determined respectively.
as §2

prolyl endopeptidase = molecular target: T2, prolyl endopeptidase (Rattus norvegicus, UniProt O70196); test: Prolyl Endopeptidase-Inhibitory Activity; type: biochemical; conditions: for inhibition at 0.01 µM: 1 × 10^-8 M; for inhibition at 0.01 µM / inhibition at 10 µM / inhibition at 1 µM: read-out: Inhibition rate, prolyl endopeptidase; for IC50: prolyl endopeptidase extracted from rat brain, pH 7.0, 30° C., preincubated 30 minutes, 1 hour; for inhibition at 10 µM: 1 × 10^-5 M; for inhibition at 1 µM: 1 × 10^-6 M
T2 construct: prolyl endopeptidase extracted from rat brain; from tissue; host or cells: rat brain
Method: A mixture of a 0.1M potassium sodium phosphate buffer (pH 7.0) (2675 μl), a solution of the compounds of the present invention in a 0.1M potassium sodium phosphate buffer (pH 7.0) (100 μl) and a solution of prolyl endopeptidase extracted from rat brain in a 25 mM sodium phosphate buffer (100 μl) [123 unit/1, pH 6.8, containing 1 mM dithiothreitol and 0.5 mM EDTA, prepared by the method described in J. Neurochem., 35, 527 (1980)] was preincubated at 30° C. for 30 minutes. Thereto was added a 0.2 mM solution of 7-(N-succinyl-glycyl-prolyl)-4-methylcoumarinamide (Peptide Institute, INC.) in a 0.1M potassium sodium phosphate buffer (pH 7.0) (125 μl), and the mixture was incubated at 30° C. for 1 hour. The reaction mixture was immersed in ice (0° C.) to terminate the reaction, and the fluorescence (a1) was determined ten minutes later (excitation at 370 nm and emission at 440 nm). Concurrently, there were conducted the experiment wherein, in the above system, the prolyl endopeptidase solution was substituted for a 25 mM sodium phosphate buffer (pH 6.8, containing 1 mM dithiothreitol and 0.5 mM EDTA) and the experiment wherein the solution of the compounds of the present invention was also substituted for a 0.1M potassium sodium phosphate buffer (pH 7.0). Each fluorescence (a2 and a3) was also determined respectively [See Tanpakushitsu Kakusan Koso, 29, 127 (1984)]. The prolyl endopeptidase-inhibition rate was calculated by the following formula, and IC50, a concentration of a compound producing 50% inhibition, was estimated by semilogarithmic graph paper. [formula]

cathepsin B = molecular target: T3, cathepsin B (Bos taurus, UniProt P07688); test: Cathepsin B-Inhibitory Activity; type: biochemical, bovine; conditions: read-out: Inhibition rate, cathepsin B; for inhibition at 0.01 µM: 1 × 10^-8 M; for inhibition at 10 µM: 1 × 10^-5 M; for inhibition at 1 µM: 1 × 10^-6 M
T3 construct: purchased Sigma; host or cells: bovine spleen
Method: Similarly, by following the procedure mentioned above, but employing a 100 mM sodium phosphate buffer (pH 6.0; containing 1.33 mM EDTA Na2) as a buffer for measurement, a 0.02 μM solution of cathepsin B (derived from bovine spleen, Sigma) in the same buffer as an enzyme solution and a 200 μM solution of 7-(N-benzyloxycarbonyl-phenylaranyl-arginyl)-4-methylcoumarinamide (Peptide Institute, Inc.) in the same buffer as a substrate solution. Each fluorescence (f1, f2 and f3) was also determined, respectively.
as §2

elastase = molecular target: T4, elastase (Sus scrofa, UniProt P00772); test: Elastase-Inhibitory Activity; type: biochemical, swine; conditions: read-out: Inhibition rate, elastase; for inhibition at 0.01 µM: 1 × 10^-8 M; for inhibition at 10 µM: 1 × 10^-5 M; for inhibition at 1 µM: 1 × 10^-6 M
T4 construct: purchased Sigma; host or cells: swine pancreas
Method: Similarly, by following the procedure mentioned above, but employing a 1 mM Tris-HCl buffer (pH 8.5) as a buffer for measurement, a 0.2 μM solution of elastase (derived from swine pancreas, Sigma) in the same buffer as an enzyme solution and a 200 μM solution of 7-(N-succinyl-aranyl-prolyl-aranyl)-4-methylcoumarinamide (Peptide Institute, Inc.) in the same buffer as a substrate solution. Each fluorescence (e1, e2 and e3) was also determined, respectively.
as §2

chymotrypsin = molecular target: T5, chymotrypsin (Bos taurus, UniProt P00766); test: Chymotrypsin-Inhibitory Activity; type: biochemical, bovine; conditions: read-out: Inhibition rate, chymotrypsin; for inhibition at 0.01 µM: 1 × 10^-8 M; for inhibition at 10 µM: 1 × 10^-5 M; for inhibition at 1 µM: 1 × 10^-6 M
T5 construct: purchased Sigma; host or cells: bovine pancreas
Method: as §1, with “chymotrypsin” for “leucine aminopeptidase”, “bovine pancrease,” for “swine kidney,”, “7-(N-succinyl-leucyl-leucyl-valyl-tyrosyl)-4-methylcoumarinamide” for “7-(leucyl-4-methylcoumarinamide”, “(c1, c2” for “(d1, d2”, “c3)” for “d3)”
as §2

T4 sequence (P00772 27-266): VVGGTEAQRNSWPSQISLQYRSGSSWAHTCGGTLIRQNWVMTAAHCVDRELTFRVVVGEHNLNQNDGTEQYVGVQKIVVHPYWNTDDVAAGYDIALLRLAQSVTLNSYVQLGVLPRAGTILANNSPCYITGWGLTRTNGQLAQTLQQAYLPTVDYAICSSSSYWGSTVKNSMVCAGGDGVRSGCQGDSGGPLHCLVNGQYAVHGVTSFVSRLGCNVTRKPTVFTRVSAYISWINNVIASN
T2 sequence (O70196 whole entry): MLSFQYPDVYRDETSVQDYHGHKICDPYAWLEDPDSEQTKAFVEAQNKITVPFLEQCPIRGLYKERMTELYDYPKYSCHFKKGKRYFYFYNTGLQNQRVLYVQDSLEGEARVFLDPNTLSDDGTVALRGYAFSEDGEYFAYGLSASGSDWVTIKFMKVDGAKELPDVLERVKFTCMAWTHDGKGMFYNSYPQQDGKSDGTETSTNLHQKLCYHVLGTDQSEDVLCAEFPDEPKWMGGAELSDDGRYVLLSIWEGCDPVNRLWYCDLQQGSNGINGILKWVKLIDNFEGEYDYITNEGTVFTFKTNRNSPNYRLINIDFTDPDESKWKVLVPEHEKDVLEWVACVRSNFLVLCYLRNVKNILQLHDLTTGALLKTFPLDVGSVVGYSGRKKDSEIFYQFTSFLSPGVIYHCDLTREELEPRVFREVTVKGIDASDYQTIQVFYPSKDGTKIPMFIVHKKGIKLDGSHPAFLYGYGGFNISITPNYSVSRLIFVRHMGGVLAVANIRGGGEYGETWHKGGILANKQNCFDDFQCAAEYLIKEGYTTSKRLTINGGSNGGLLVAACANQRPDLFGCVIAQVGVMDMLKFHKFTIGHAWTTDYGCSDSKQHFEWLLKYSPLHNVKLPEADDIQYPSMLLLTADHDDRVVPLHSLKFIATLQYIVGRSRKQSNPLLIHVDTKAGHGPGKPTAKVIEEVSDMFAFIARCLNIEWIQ

Question: How did the “Inhibition rate, leucine aminopeptidase” value (leucine aminopeptidase; 1 × 10^-8 M) turn out when `O=C[C@@H]1CCCN1C(=O)[C@@H]1CCCN1C(=O)CN1CCCC1=O` [Compound 4, N-[(2-Oxo-1-pyrrolidinyl)acetyl]-L-prolyl-L-prolinal] was run?
Answer: 0%

Question: What about the inhibition at 0.01 µM (trypsin) of the same compound?
Answer: 0%

Question: What about the inhibition at 0.01 µM (prolyl endopeptidase) of the same compound?
Answer: 100%

Question: And the IC50 (prolyl endopeptidase)?
Answer: 0.0004 µM

Question: And the inhibition at 0.01 µM (cathepsin B)?
Answer: 0%

Question: What about the inhibition at 0.01 µM (elastase) of the same compound?
Answer: 0%

Question: And the inhibition at 0.01 µM (chymotrypsin)?
Answer: 0%

Question: `O=C[C@@H]1CSCN1C(=O)[C@@H]1CCCN1C(=O)CN1CCCC1=O` [Compound 5, N-[(2-Oxo-1-pyrrolidinyl)acetyl]-L-prolyl-L-thioprolinal] was tested. Which IC50 (prolyl endopeptidase) did it give?
Answer: 0.003 µM

Question: `O=C[C@@H]1CCCN1C(=O)[C@@H]1CSCN1C(=O)CN1CCCC1=O` [Compound 6, N-[(2-Oxo-1-pyrrolidinyl)acetyl]-L-thioprolyl-L-prolinal] was tested. Which IC50 (prolyl endopeptidase) did it give?
Answer: 0.0015 µM

Question: Which IC50 (prolyl endopeptidase) does the source give for `O=C[C@@H]1CSCN1C(=O)[C@@H]1CSCN1C(=O)CN1CCCC1=O` [Compound 7, N-[(2-Oxo-1-pyrrolidinyl)acetyl]-L-thioprolyl-L-thioprolinal] here?
Answer: 0.005 µM

Question: Which results are given for `O=C1CCCN1CC(=O)N1CCC[C@H]1C(=O)N1CCSC1` [Compound 8, 3-{N-[(2-Oxo-1-pyrrolidinyl)acetyl]-L-prolyl}thiazolidine]?
Answer: Inhibition rate, leucine aminopeptidase (leucine aminopeptidase; 1 × 10^-5 M): 0%; inhibition at 10 µM (trypsin): 0%; inhibition at 10 µM (prolyl endopeptidase): 96%; IC50 (prolyl endopeptidase): 0.2 µM; inhibition at 10 µM (cathepsin B): 0%; inhibition at 10 µM (elastase): 0%; inhibition at 10 µM (chymotrypsin): 0%

Question: What does the source list for `O=C1CCCN1CC(=O)N1CSC[C@H]1C(=O)N1CCSC1` [Compound 9, 3-{N-[(2-Oxo-1-pyrrolidinyl)acetyl]-L-thioprolyl}thiazolidine]?
Answer: Inhibition rate, leucine aminopeptidase (leucine aminopeptidase; 1 × 10^-5 M): 0%; inhibition at 10 µM (trypsin): 0%; inhibition at 10 µM (prolyl endopeptidase): 97%; IC50 (prolyl endopeptidase): 0.15 µM; inhibition at 10 µM (cathepsin B): 0%; inhibition at 10 µM (elastase): 0%; inhibition at 10 µM (chymotrypsin): 0%

Question: Which IC50 (prolyl endopeptidase) does the source give for `O=C[C@@H]1CCCN1C(=O)CCC(=O)N1CCCC1=O` [Compound 10] here?
Answer: 0.07 µM

Question: `O=C[C@@H]1CCCN1C(=O)CCC(=O)NCCCN1CCCC1=O` [Compound 11, N-{4-Oxo-4-[3-(2-oxo-1-pyrrolidinyl)propylamino]butanoyl}-L-prolinal] was tested. Which “Inhibition rate, leucine aminopeptidase” value (leucine aminopeptidase; 1 × 10^-6 M) did it give?
Answer: 0%

Question: What about the inhibition at 1 µM (trypsin) of the same compound?
Answer: 0%

Question: And the inhibition at 1 µM (prolyl endopeptidase)?
Answer: 97%

Question: What about the IC50 (prolyl endopeptidase) of the same compound?
Answer: 0.025 µM

Question: And the inhibition at 1 µM (cathepsin B)?
Answer: 0%

Question: What about the inhibition at 1 µM (elastase) of the same compound?
Answer: 0%

Question: And the inhibition at 1 µM (chymotrypsin)?
Answer: 0%

Question: `O=C([C@@H]1CCCN1C(=O)OCc1ccccc1)N1CCC[C@H]1C=NO` [Compound 12, (2S)-1-(N-Benzyloxycarbonyl-L-prolyl)-2-pyrrolidinecarboxaldehyde oxime] was tested. Which “Inhibition rate, leucine aminopeptidase” value (leucine aminopeptidase; 1 × 10^-5 M) did it give?
Answer: 0%

Question: What about the inhibition at 10 µM (trypsin) of the same compound?
Answer: 0%

Question: And the inhibition at 10 µM (prolyl endopeptidase)?
Answer: 100%

Question: What about the IC50 (prolyl endopeptidase) of the same compound?
Answer: 0.45 µM

Question: What about the inhibition at 10 µM (cathepsin B) of the same compound?
Answer: 0%

Question: What about the inhibition at 10 µM (elastase) of the same compound?
Answer: 0%

Question: And the inhibition at 10 µM (chymotrypsin)?
Answer: 0%

Question: With `CC(=O)ON=C[C@@H]1CCCN1C(=O)[C@@H]1CCCN1C(=O)OCc1ccccc1` [Compound 15, (2S)-1-(N-Benzyloxycarbonyl-L-prolyl)-2-pyrrolidinecarboxaldehyde O-acetyloxime] as the compound, how does the “Inhibition rate, leucine aminopeptidase” value (leucine aminopeptidase; 1 × 10^-6 M) read?
Answer: 0%

Question: What about the inhibition at 1 µM (trypsin) of the same compound?
Answer: 0%

Question: And the inhibition at 1 µM (prolyl endopeptidase)?
Answer: 100%

Question: And the IC50 (prolyl endopeptidase)?
Answer: 0.0045 µM

Question: What about the inhibition at 1 µM (cathepsin B) of the same compound?
Answer: 0%

Question: What about the inhibition at 1 µM (elastase) of the same compound?
Answer: 0%

Question: And the inhibition at 1 µM (chymotrypsin)?
Answer: 0%

Question: `CC(=O)ON=C[C@@H]1CSCN1C(=O)[C@@H]1CCCN1C(=O)OCc1ccccc1` [Compound 16, (4R)-3-(N-Benzyloxycarbonyl-L-prolyl)-4-thiazolidinecarboxaldehyde O-acetyloxime] was tested. Which IC50 (prolyl endopeptidase) did it give?
Answer: 0.1 µM

Question: With `CC(=O)ON=C[C@@H]1CSCN1C(=O)[C@@H]1CSCN1C(=O)OCc1ccccc1` [Compound 17, (4R)-3-(N-Benzyloxycarbonyl-L-thioprolyl)-4-thiazolidinecarboxaldehyde O-acetyloxime] as the compound, how does the IC50 (prolyl endopeptidase) read?
Answer: 0.31 µM

Question: Which results are given for `O=C([C@@H]1CCCN1C(=O)OCc1ccccc1)N1CCC[C@H]1C=NOCc1ccccc1` [Compound 18, (2S)-1-(N-Benzyloxycarbonyl-L-prolyl)-2-pyrrolidinecarboxaldehyde O-benzyloxime]?
Answer: Inhibition rate, leucine aminopeptidase (leucine aminopeptidase; 1 × 10^-5 M): 0%; inhibition at 10 µM (trypsin): 0%; inhibition at 10 µM (prolyl endopeptidase): 100%; IC50 (prolyl endopeptidase): 0.04 µM; inhibition at 10 µM (cathepsin B): 0%; inhibition at 10 µM (elastase): 0%; inhibition at 10 µM (chymotrypsin): 0%

Question: With `N#C[C@@H]1CCCN1C(=O)[C@@H]1CCCN1C(=O)OCc1ccccc1` [Compound 19, (2S)-1-(N-Benzyloxycarbonyl-L-prolyl)-2-cyanopyrrolidine] as the compound, how does the “Inhibition rate, leucine aminopeptidase” value (leucine aminopeptidase; 1 × 10^-8 M) read?
Answer: 0%

Question: What about the inhibition at 0.01 µM (trypsin) of the same compound?
Answer: 0%

Question: What about the inhibition at 0.01 µM (prolyl endopeptidase) of the same compound?
Answer: 100%

Question: And the IC50 (prolyl endopeptidase)?
Answer: 0.00035 µM

Question: What about the inhibition at 0.01 µM (cathepsin B) of the same compound?
Answer: 0%

Question: What about the inhibition at 0.01 µM (elastase) of the same compound?
Answer: 0%

Question: And the inhibition at 0.01 µM (chymotrypsin)?
Answer: 0%

Question: For `N#C[C@@H]1CSCN1C(=O)[C@@H]1CSCN1C(=O)OCc1ccccc1` [Compound 20, (4R)-3-(N-Benzyloxycarbonyl-L-thioprolyl)-4-cyanothiazolidine], which IC50 (prolyl endopeptidase) is on record?
Answer: 0.0032 µM

Question: For `CC(=O)ON=C[C@@H]1CSCN1C(=O)[C@@H]1CCCN1C(=O)CN1CCCC1=O` [Compound 23, (4R)-3-{N-[(2-Oxo-1-pyrrolidinyl)acetyl]-L-prolyl}-4-thiazolidinecarboxaldehyde O-acetyloxime], which IC50 (prolyl endopeptidase) is on record?
Answer: 0.64 µM

Question: For `N#C[C@@H]1CSCN1C(=O)[C@@H]1CCCN1C(=O)CN1CCCC1=O` [Compound 24, (4R)-3-{N-[(2-Oxo-1-pyrrolidinyl)acetyl]-L-prolyl}-4-cyanothiazolidine], which IC50 (prolyl endopeptidase) is on record?
Answer: 0.034 µM
